Results from ChEMBL document CHEMBL1201862, “PubChem BioAssay data set” (2004).
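The compound was tested at five concentrations on cells cultured in 96-well plates, with a 48-hour exposure period. GI50: concentration for 50% inhibition of growth.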 Active and inactive are the calls of the source. Rule as the data show it: active = GI50 up to about 1.1 µM and inactive = higher.

What was measured:
Assay in all cases: NCI anticancer screen, dose series, 48 h
HCT-116 = test system: HCT-116
HT-29 = test system: HT-29
M14 = test system: M14
MDA-MB-231 = test system: MDA-MB-231
MDA-MB-435 = test system: MDA-MB-435
NCI-H226 = test system: NCI-H226
NCI-H460 = test system: NCI-H460
NCI/ADR-RES = test system: NCI/ADR-RES
OVCAR-5 = test system: OVCAR-5
RPMI-8226 = test system: RPMI-8226
RXF 393 = test system: RXF 393
SF-539 = test system: SF-539
SK-MEL-28 = test system: SK-MEL-28
SK-MEL-2 = test system: SK-MEL-2
SN12C = test system: SN12C
SNB-19 = test system: SNB-19
SW-620 = test system: SW-620
UACC-257 = test system: UACC-257
UO-31 = test system: UO-31
OVCAR-4 = test system: OVCAR-4

| Structure (SMILES) | GI50 (HCT-116) | GI50 (HT-29) | GI50 (M14) | GI50 (MDA-MB-231) | GI50 (MDA-MB-435) | GI50 (NCI-H226) | GI50 (NCI-H460) | GI50 (NCI/ADR-RES) | GI50 (OVCAR-5) | GI50 (RPMI-8226) | GI50 (RXF 393) | GI50 (SF-539) | GI50 (SK-MEL-28) | GI50 (SK-MEL-2) | GI50 (SN12C) | GI50 (SNB-19) | GI50 (SW-620) | GI50 (UACC-257) | GI50 (UO-31) | GI50 (OVCAR-4) |
| --- | --- | --- | --- | --- | --- | --- | --- | --- | --- | --- | --- | --- | --- | --- | --- | --- | --- | --- | --- | --- |
| O=c1[nH]c2ccc(CC(=S)N3CCN(c4ccccc4)CC3)cc2s1 | 33.9 µM (inactive) | 51.8 µM (inactive) | 23.1 µM (inactive) | 21.9 µM (inactive) | 72.8 µM (inactive) | 14.3 µM (inactive) | 13 µM (inactive) | 13.2 µM (inactive) | 15.7 µM (inactive) | 12.7 µM (inactive) | 18 µM (inactive) | 28 µM (inactive) | > 100 µM (inactive) | 82.2 µM (inactive) | 70.6 µM (inactive) | > 100 µM (inactive) | 71.9 µM (inactive) | > 100 µM (inactive) | 0.063 µM (active) |  |
| CC(O)[C@@]1(c2ccccc2)CC2(CCN(C)CC2)O[C@H]1C (stereo partly specified) |  | > 100 µM (inactive) | > 100 µM (inactive) | > 100 µM (inactive) | > 100 µM (inactive) | > 100 µM (inactive) | > 100 µM (inactive) | > 100 µM (inactive) | > 100 µM (inactive) | > 100 µM (inactive) | > 100 µM (inactive) | > 100 µM (inactive) | > 100 µM (inactive) | > 100 µM (inactive) |  | > 100 µM (inactive) | > 100 µM (inactive) | > 100 µM (inactive) | 39.8 µM (inactive) | 98.6 µM (inactive) |
| COC(=O)CCN1CCN(CCO)CC1C (stereo unspecified) | > 10 µM (inactive) | > 10 µM (inactive) | > 10 µM (inactive) | > 10 µM (inactive) | > 10 µM (inactive) | > 10 µM (inactive) | > 10 µM (inactive) | > 10 µM (inactive) |  | > 10 µM (inactive) | > 10 µM (inactive) | > 10 µM (inactive) | > 10 µM (inactive) | > 10 µM (inactive) | > 10 µM (inactive) | > 10 µM (inactive) | > 10 µM (inactive) | > 10 µM (inactive) | > 10 µM (inactive) | > 10 µM (inactive) |
| COc1cccc(N2C(=O)C3c4[nH]c5ccccc5c4C4CCCC4C3C2=O)c1 (stereo unspecified) | 2.87 µM (inactive) | 5.69 µM (inactive) | 3.06 µM (inactive) | 2.25 µM (inactive) | > 10 µM (inactive) | 2.57 µM (inactive) | 4.26 µM (inactive) | 3.8 µM (inactive) | > 10 µM (inactive) | > 10 µM (inactive) | 9.04 µM (inactive) | 7 µM (inactive) | > 10 µM (inactive) | > 10 µM (inactive) | 3.01 µM (inactive) | 5.81 µM (inactive) | 7.98 µM (inactive) | > 10 µM (inactive) |  | 2.26 µM (inactive) |
| CC(C)CC(NC=O)C(=O)NC(Cc1ccccc1)NC(=O)CNC(=O)C(C)NC(=O)C(N)Cc1ccc(O)cc1 (stereo unspecified) | > 100 µM (inactive) | > 100 µM (inactive) | > 100 µM (inactive) | > 100 µM (inactive) | > 100 µM (inactive) | > 100 µM (inactive) | > 100 µM (inactive) | > 100 µM (inactive) | > 100 µM (inactive) | > 100 µM (inactive) | > 100 µM (inactive) | > 100 µM (inactive) | > 100 µM (inactive) |  | > 100 µM (inactive) | > 100 µM (inactive) | > 100 µM (inactive) |  | > 100 µM (inactive) | 91.8 µM (inactive) |
| COc1nc(C)nc2c1ncn2Cc1ccccc1 | > 100 µM (inactive) | > 100 µM (inactive) | > 100 µM (inactive) | > 100 µM (inactive) | > 100 µM (inactive) | > 100 µM (inactive) | > 100 µM (inactive) | > 100 µM (inactive) | > 100 µM (inactive) | > 100 µM (inactive) | > 100 µM (inactive) | > 100 µM (inactive) | > 100 µM (inactive) |  | > 100 µM (inactive) | > 100 µM (inactive) | > 100 µM (inactive) | > 100 µM (inactive) |  | > 100 µM (inactive) |
| COc1ccc(C(=O)CC(c2ccccc2)[C@H]2C(c3ccc(OC)cc3)=Nc3c(nc(SC)n(C)c3=O)NC2c2ccccc2)cc1 (stereo partly specified) | 89.7 µM (inactive) | > 100 µM (inactive) | > 100 µM (inactive) | > 100 µM (inactive) | > 100 µM (inactive) | > 100 µM (inactive) | > 100 µM (inactive) | > 100 µM (inactive) | > 100 µM (inactive) | > 100 µM (inactive) | > 100 µM (inactive) | > 100 µM (inactive) | > 100 µM (inactive) | > 100 µM (inactive) | > 100 µM (inactive) | > 100 µM (inactive) | > 100 µM (inactive) | > 100 µM (inactive) |  |  |
| CC(O)CCNC(=O)Nc1c(C(F)(F)F)cc(-c2ccccc2)[nH]c1=O (stereo unspecified) | > 100 µM (inactive) | > 100 µM (inactive) | > 100 µM (inactive) | > 100 µM (inactive) | > 100 µM (inactive) | > 100 µM (inactive) | > 100 µM (inactive) | > 100 µM (inactive) | > 100 µM (inactive) | > 100 µM (inactive) | > 100 µM (inactive) |  | > 100 µM (inactive) | > 100 µM (inactive) | > 100 µM (inactive) | > 100 µM (inactive) | > 100 µM (inactive) | > 100 µM (inactive) | > 100 µM (inactive) | > 100 µM (inactive) |
| O=C(O)C1CCN(Cc2oc(CO)cc(=O)c2O)C1 (stereo unspecified) | > 100 µM (inactive) | > 100 µM (inactive) | > 100 µM (inactive) | > 100 µM (inactive) | > 100 µM (inactive) | > 100 µM (inactive) | > 100 µM (inactive) | > 100 µM (inactive) | > 100 µM (inactive) | > 100 µM (inactive) | > 100 µM (inactive) |  | > 100 µM (inactive) | > 100 µM (inactive) | > 100 µM (inactive) | > 100 µM (inactive) | > 100 µM (inactive) | > 100 µM (inactive) | > 100 µM (inactive) | > 100 µM (inactive) |
| Nc1c2cc3ccc2nc2ccc(cc12)OCCOCCOCCOCCOCCOCCO3 | > 10 µM (inactive) | > 10 µM (inactive) | > 10 µM (inactive) | > 10 µM (inactive) | > 10 µM (inactive) | > 10 µM (inactive) | > 10 µM (inactive) | > 10 µM (inactive) | > 10 µM (inactive) | > 10 µM (inactive) | > 10 µM (inactive) | > 10 µM (inactive) | > 10 µM (inactive) | > 10 µM (inactive) | > 10 µM (inactive) | > 10 µM (inactive) | > 10 µM (inactive) | > 10 µM (inactive) |  | > 10 µM (inactive) |
| CCCCN(CCCC)CC(=O)c1ccc2cc(Cl)c3ccccc3c2c1 | 43.1 µM (inactive) | 17.4 µM (inactive) | 76 µM (inactive) | 31.4 µM (inactive) | 30.4 µM (inactive) | 25.3 µM (inactive) | 18.3 µM (inactive) | 99.3 µM (inactive) | 51.1 µM (inactive) | 7.98 µM (inactive) | 13.4 µM (inactive) | 42.6 µM (inactive) |  | 25.5 µM (inactive) | 50.7 µM (inactive) | 33.7 µM (inactive) | 29.8 µM (inactive) | 31.9 µM (inactive) | 20.6 µM (inactive) | 24.2 µM (inactive) |
| COc1nncc2[nH]c(-c3ccccc3)cc12 | 50.8 µM (inactive) | > 100 µM (inactive) | 86.7 µM (inactive) | 49.8 µM (inactive) | 73.3 µM (inactive) | 80.9 µM (inactive) | 64.6 µM (inactive) | 76.2 µM (inactive) | > 100 µM (inactive) | 46.9 µM (inactive) | > 100 µM (inactive) | > 100 µM (inactive) |  | 33.9 µM (inactive) | 40.9 µM (inactive) | > 100 µM (inactive) | > 100 µM (inactive) | 71.1 µM (inactive) | 51.2 µM (inactive) | 93.5 µM (inactive) |
| CC(O)C(CO)NC(=O)C1CSSCC(NC(=O)C(N)Cc2ccccc2)C(=O)NC(Cc2ccccc2)C(=O)NC(Cc2c[nH]c3ccccc23)C(=O)NC(CCCCN)C(=O)NC(C(C)O)C(=O)N1 (stereo unspecified) | > 100 µM (inactive) | > 100 µM (inactive) | > 100 µM (inactive) | > 100 µM (inactive) | > 100 µM (inactive) | > 100 µM (inactive) | > 100 µM (inactive) | > 100 µM (inactive) | > 100 µM (inactive) | > 100 µM (inactive) | > 100 µM (inactive) | > 100 µM (inactive) | > 100 µM (inactive) |  | > 100 µM (inactive) | > 100 µM (inactive) | > 100 µM (inactive) | > 100 µM (inactive) | > 100 µM (inactive) | > 100 µM (inactive) |
| CC(C(=O)NCNC(=O)c1ccccc1)C(=O)Nc1ccccc1 (stereo unspecified) | > 100 µM (inactive) | > 100 µM (inactive) | > 100 µM (inactive) | > 100 µM (inactive) | > 100 µM (inactive) | > 100 µM (inactive) | > 100 µM (inactive) | > 100 µM (inactive) | > 100 µM (inactive) | > 100 µM (inactive) | > 100 µM (inactive) | > 100 µM (inactive) |  | > 100 µM (inactive) | > 100 µM (inactive) | > 100 µM (inactive) | > 100 µM (inactive) | > 100 µM (inactive) | > 100 µM (inactive) |  |
